Measurements published in EP3088389A1, “4-EPI-ISOFAGOMINE DERIVATIVES” (Dorphan S.A., priority 2015, dated 2016).

What was measured:
[1] = biological target: T1, Beta-galactosidase (Homo sapiens, UniProt P16278); test: Inhibition of wild type beta-galactosidase activity in human peripheral blood mononuclear cell lysate (Example 1); type: biochemical; settings: for IC50: human PBMC lysate, pH 7.3, 2 hours at 37°C
T1 construct: endogenous in cells; host or cells: human peripheral blood mononuclear cells (lysate)
T1 sequence (P16278 29-677): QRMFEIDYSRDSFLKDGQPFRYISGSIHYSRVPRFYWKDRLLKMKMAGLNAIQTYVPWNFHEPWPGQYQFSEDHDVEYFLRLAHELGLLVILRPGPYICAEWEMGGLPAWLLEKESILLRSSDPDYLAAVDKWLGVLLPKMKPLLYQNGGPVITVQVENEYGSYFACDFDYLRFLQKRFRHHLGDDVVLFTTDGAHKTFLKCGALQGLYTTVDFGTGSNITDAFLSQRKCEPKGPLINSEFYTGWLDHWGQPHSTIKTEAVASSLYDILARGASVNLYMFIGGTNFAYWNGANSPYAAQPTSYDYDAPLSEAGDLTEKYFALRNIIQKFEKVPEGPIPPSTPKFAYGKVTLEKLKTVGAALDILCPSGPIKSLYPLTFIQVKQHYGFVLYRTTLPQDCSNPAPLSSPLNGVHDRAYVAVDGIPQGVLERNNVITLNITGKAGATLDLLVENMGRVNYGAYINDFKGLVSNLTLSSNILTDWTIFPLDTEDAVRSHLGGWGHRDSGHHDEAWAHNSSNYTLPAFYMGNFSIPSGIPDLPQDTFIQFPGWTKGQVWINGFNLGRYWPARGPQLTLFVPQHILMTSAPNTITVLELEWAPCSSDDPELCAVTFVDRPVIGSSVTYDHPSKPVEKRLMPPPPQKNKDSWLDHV
Description: (§1) Samples of human peripheral blood mononuclear cell lysate (2 x 10^6 cells per assay) were incubated with graded concentrations of compound N-nonyl-4-epi-isofagomine or 4-epi-isofagomine in 50 mM sodium phosphate, pH 7.3, supplemented with 1% Triton X-100 and protease inhibitors, and 0.8 mM of 4-methylumbelliferyl β-D-galactopyranoside. After an incubation of 2 hours at 37°C, the enzymatic reactions were stopped by the addition of 0.15 M glycine, pH 10.2, and fluorescence was measured at 445 nm using an excitation wavelength of 365 nm. The stock solutions of compound were at 20 mM in DMSO.
The results obtained with N-nonyl-4-epi-isofagomine (squares), 4-epi-isofagomine (triangles) and DMSO vehicle (circles) are presented on figure 1.

[2] = biological target: T1, Beta-galactosidase; test: Inhibition of wild type beta-galactosidase activity in human peripheral blood mononuclear cell lysate (Example 3); type: biochemical
Description: as §1, with “compound” for “compound N-nonyl-4-epi-isofagomine or 4-epi-isofagomine”, “25” for “50”, “0.5%” for “1%”, “nm.” for “nm. The stock solutions of compound were at 20 mM in DMSO.”

[3] = biological target: Alpha-hexosaminidase; test: Glycosidase specificity panel (Example 4); type: biochemical, Human
Source text: (§2) IC50 values indicated in table 1 are the concentrations of (2R,3R,4S,5R)-3-hydroxymethyl-2-pentylpiperidine-4,5-diol compound required to inhibit by half the different enzymatic activities.

[4] = biological target: Beta-glucosidase; test: Glycosidase specificity panel (Example 4); type: biochemical, Human
Source text: as §2

[5] = biological target: Alpha-glucosidase; test: Glycosidase specificity panel (Example 4); type: biochemical, Human
Source text: as §2

[6] = biological target: Beta-hexosaminidase; test: Glycosidase specificity panel (Example 4); type: biochemical, Human
Source text: as §2

[7] = system: mutated beta-galactosidase; test: Increase of mutated beta-galactosidase activity in fibroblasts of GM1-gangliosidosis patients (Example 6); type: cell-based, human; settings: 4 days
Description: GM02439 and GM05335 fibroblasts (Coriell Institute) were cultured for 4 days in the presence or the absence of 2 µM of (2R,3R,4S,5R)-3-hydroxymethyl-2-pentylpiperidine-4,5-diol. Cells were lysed in 100 mM sodium citrate, pH 4.8, supplemented with 1% Triton X-100 and protease inhibitors. B eta-galactosidase and beta-hexosaminidase activities were then determined in the cell lysates using fluorescence and colorimetric assays, respectively. Results presented are means of 4 values obtained from independent cultures. […] Hatched and empty bars: beta-galactosidase and beta-hexosaminidase activities, respectively.

[8] = biological target: T1, Beta-galactosidase; test: Prevention of heat denaturation of beta-galactosidase in PBMC lysate at 48°C (Example 5); type: biochemical
Source text: The capacity of a compound of protecting an enzyme from denaturation predicts to some extent its pharmacological chaperone activity, i.e. its capacity of restoring enzymatic activity in patient cells exposed to the compound. The Applicant has evaluated whether (2R,3R,4S,5R)-3-hydroxymethyl-2-pentylpiperidine-4,5-diol can prevent heat denaturation of human beta-galactosidase following a procedure described by Suzuki et al 2014.
Samples of human peripheral blood mononuclear cell lysate (2 x 10^6 cells) in phosphate buffer, pH 7.3, 0.5% Triton X-100 and protease inhibitors were incubated at 48°C for 0, 5, 10, 20, and 40 minutes in the presence of graded concentrations of (2R,3R,4S,5R)-3-hydroxymethyl-2-pentylpiperidine-4,5-diol. The samples were then diluted in citrate buffer, pH 4.3, and 0.25 mM of 4-methylumbelliferyl β-D-galactopyranoside. After an incubation of 17 hours at 37°C, the reaction was stopped by the addition of glycine 0.15 M, pH 10.2. Fluorescence was determined at 445 nm using an excitation wavelength at 365 nm. The tested concentrations of (2R,3R,4S,5R)-3-hydroxymethyl-2-pentylpiperidine-4,5-diol, are 20 µM (square), 2 µM (triangle), 0.2 µM (diamond), 0.02 µM (circle) and 0 µM (line).

[9] = system: Beta-hexosaminidase; test: Beta-hexosaminidase activity in fibroblasts of GM1-gangliosidosis patients (Example 6); type: cell-based, human; settings: GM02439 and GM05335 fibroblasts, 2 µM, 4 days
Description: GM02439 and GM05335 fibroblasts (Coriell Institute) were cultured for 4 days in the presence or the absence of 2 µM of (2R,3R,4S,5R)-3-hydroxymethyl-2-pentylpiperidine-4,5-diol. Cells were lysed in 100 mM sodium citrate, pH 4.8, supplemented with 1% Triton X-100 and protease inhibitors. B eta-galactosidase and beta-hexosaminidase activities were then determined in the cell lysates using fluorescence and colorimetric assays, respectively. Results presented are means of 4 values obtained from independent cultures. Percent of deviation of each value is <30% from the mean. Hatched and empty bars: beta-galactosidase and beta-hexosaminidase activities, respectively.

[10] = biological target: T1, Beta-galactosidase; test: Glycosidase specificity panel, beta-galactosidase from PBMC lysate (Example 4); type: biochemical
Source text: as §2

[11] = biological target: T2, Alpha-galactosidase (Homo sapiens, UniProt P06280); test: Glycosidase specificity panel (Example 4); type: biochemical
T2 sequence (P06280 32-429): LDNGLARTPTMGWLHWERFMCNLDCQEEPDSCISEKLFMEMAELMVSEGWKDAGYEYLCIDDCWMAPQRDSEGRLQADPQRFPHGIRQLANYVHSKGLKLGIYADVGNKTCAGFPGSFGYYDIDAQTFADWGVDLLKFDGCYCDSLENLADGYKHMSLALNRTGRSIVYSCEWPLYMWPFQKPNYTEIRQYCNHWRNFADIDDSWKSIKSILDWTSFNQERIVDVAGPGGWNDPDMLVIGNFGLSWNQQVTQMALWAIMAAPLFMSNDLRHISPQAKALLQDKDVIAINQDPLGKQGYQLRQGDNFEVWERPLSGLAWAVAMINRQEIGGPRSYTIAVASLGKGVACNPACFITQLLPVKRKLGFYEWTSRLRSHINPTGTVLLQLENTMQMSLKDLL
Source text: as §2

[12] = biological target: T3, Beta-glucuronidase (Homo sapiens, UniProt P08236); test: Glycosidase specificity panel (Example 4); type: biochemical
T3 sequence (P08236 23-651): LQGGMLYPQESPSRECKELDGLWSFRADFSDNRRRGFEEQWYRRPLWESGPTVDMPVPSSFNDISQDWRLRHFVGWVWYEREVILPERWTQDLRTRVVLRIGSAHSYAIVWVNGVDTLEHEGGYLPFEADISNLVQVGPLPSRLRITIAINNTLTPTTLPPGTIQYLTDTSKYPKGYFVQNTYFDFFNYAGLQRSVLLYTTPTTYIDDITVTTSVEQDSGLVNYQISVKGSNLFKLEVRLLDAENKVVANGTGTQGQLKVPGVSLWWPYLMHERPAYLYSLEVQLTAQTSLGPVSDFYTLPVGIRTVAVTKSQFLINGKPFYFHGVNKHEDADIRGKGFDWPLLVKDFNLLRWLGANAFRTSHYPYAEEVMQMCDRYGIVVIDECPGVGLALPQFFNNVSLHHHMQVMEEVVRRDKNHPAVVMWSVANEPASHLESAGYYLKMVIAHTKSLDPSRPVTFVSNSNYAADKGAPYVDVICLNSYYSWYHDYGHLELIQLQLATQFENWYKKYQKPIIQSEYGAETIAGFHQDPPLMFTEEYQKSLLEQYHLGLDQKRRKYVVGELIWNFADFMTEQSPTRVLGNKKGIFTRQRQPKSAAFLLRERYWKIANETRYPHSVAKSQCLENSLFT
Source text: as §2

[13] = human PBMC lysate, pH 7.3, 2 hours at 37°C, Example 3, read-out: IC50

Question: `CCCCCCCCCN1CC(O)C(O)C(CO)C1` (stereo not drawn) [N-nonyl-4-epi-isofagomine] was tested. Which “fold less inhibitory on human beta-galactosidase than 4-epi-isofagomine” value [1] did it give?
Answer: Its value is 140 fold.

Question: What about the IC50 [1] of the same compound?
Answer: The IC50 was 10 µM.

Question: `CCCCCC1NCC(O)[C@@H](O)[C@H]1CO` (stereo in doubt) [(2R,3R,4S,5S)-3-hydroxymethyl-2-pentylpiperidine-4,5-diol] was tested. Which “fold less potent than (2R,3R,4S,5R) isomer” value ([2]; Example 3) did it give?
Answer: Its value is 150 fold.

Question: And the IC50 [2, 13]?
Answer: The IC50 was 1.5 µM.

Question: Which IC50 [3] does the source give for `CCCCC[C@H]1NC[C@@H](O)[C@@H](O)[C@H]1CO` [(2R,3R,4S,5R)-3-Hydroxymethyl-2-pentylpiperidine-4,5-diol] here?
Answer: Its IC50 is over 160 µM.

Question: What about the IC50 [4] of the same compound?
Answer: Its IC50 is 60 µM.

Question: What about the IC50 [5] of the same compound?
Answer: The IC50 was over 160 µM.

Question: What about the IC50 [6] of the same compound?
Answer: Its IC50 is over 160 µM.

Question: What about the “increase of mutated beta-galactosidase activity relative to untreated cells” value ([7]; infantile GM1-gangliosidosis cell line GM05335, 2 µM) of the same compound?
Answer: Its value is 19 fold.

Question: And the “increase of mutated beta-galactosidase activity relative to untreated cells” value ([7]; juvenile GM1-gangliosidosis cell line GM02439, 2 µM)?
Answer: The value was 6.5 fold.

Question: And the activity at 0.02 µM ([8]; 0 minute)?
Answer: The activity at 0.02 µM was 100%.

Question: What about the activity at 0.02 µM ([8]; 5 minutes) of the same compound?
Answer: The activity at 0.02 µM was 70%.

Question: And the activity at 0.02 µM ([8]; 10 minutes)?
Answer: Its activity at 0.02 µM is 46%.

Question: What about the activity at 0.02 µM ([8]; 20 minutes) of the same compound?
Answer: The activity at 0.02 µM was 23%.

Question: What about the activity at 0.02 µM ([8]; 40 minutes) of the same compound?
Answer: The activity at 0.02 µM was 11%.

Question: What about the activity at 0.2 µM ([8]; 0 minute) of the same compound?
Answer: The activity at 0.2 µM was 100%.

Question: What about the activity at 0.2 µM ([8]; 5 minutes) of the same compound?
Answer: Its activity at 0.2 µM is 81%.

Question: And the activity at 0.2 µM ([8]; 10 minutes)?
Answer: Its activity at 0.2 µM is 72%.

Question: And the activity at 0.2 µM ([8]; 20 minutes)?
Answer: Its activity at 0.2 µM is 56%.

Question: What about the activity at 0.2 µM ([8]; 40 minutes) of the same compound?
Answer: The activity at 0.2 µM was 33%.

Question: And the “time to loss of 50% of the beta-galactosidase activity” value ([8]; 2 µM)?
Answer: The value was over 40 min.

Question: What about the activity at 2 µM ([8]; 2 µM, 0 minute) of the same compound?
Answer: The activity at 2 µM was 100%.

Question: What about the activity at 2 µM ([8]; 2 µM, 5 minutes) of the same compound?
Answer: Its activity at 2 µM is 82%.

Question: What about the activity at 2 µM ([8]; 2 µM, 10 minutes) of the same compound?
Answer: The activity at 2 µM was 84%.

Question: And the activity at 2 µM ([8]; 2 µM, 20 minutes)?
Answer: The activity at 2 µM was 73%.

Question: What about the activity at 2 µM ([8]; 2 µM, 40 minutes) of the same compound?
Answer: Its activity at 2 µM is 70%.

Question: And the “time to loss of 50% of the beta-galactosidase activity” value ([8]; 20 µM)?
Answer: The value was over 40 min.

Question: And the activity at 20 µM ([8]; 20 µM, 0 minute)?
Answer: Its activity at 20 µM is 100%.

Question: What about the activity at 20 µM ([8]; 20 µM, 5 minutes) of the same compound?
Answer: The activity at 20 µM was 93%.

Question: And the activity at 20 µM ([8]; 20 µM, 10 minutes)?
Answer: Its activity at 20 µM is 95%.

Question: What about the activity at 20 µM ([8]; 20 µM, 20 minutes) of the same compound?
Answer: The activity at 20 µM was 85%.

Question: What about the activity at 20 µM ([8]; 20 µM, 40 minutes) of the same compound?
Answer: Its activity at 20 µM is 87%.

Question: What about the “increase of the beta-hexosaminidase activity” value [9] of the same compound?
Answer: Its value is “no increase”.

Question: And the IC50 [10]?
Answer: Its IC50 is 0.02 µM.

Question: What about the IC50 [2, 13] of the same compound?
Answer: The IC50 was 0.01 µM.

Question: And the IC50 [11]?
Answer: Its IC50 is 150 µM.

Question: And the IC50 [12]?
Answer: The IC50 was over 160 µM.

Question: How did the IC50 [1] turn out when `OC[C@H]1CNC[C@@H](O)[C@H]1O` [4-epi-isofagomine] was run?
Answer: Its IC50 is 0.07 µM.

Question: What about the IC50 [2] of the same compound?
Answer: Its IC50 is 0.8 µM.
